Test results taken from patent US12209081B2 (Katholieke Universiteit Leuven, priority 2020, dated 2025).

Target: mouse TRPM3α2 (mTRPM3) ion channel (Mus musculus (Mouse), UniProt J9SQF3)
Test: TRPM3 ion channel driven Ca2+ uptake, Fluo-4 AM assay, mTRPM3alpha2 overexpressing flip-in HEK293 cells stimulated with pregnenolone sulfate
Format: cell-based
Settings: PS (50 μM) stimulated, cpds. 608-666
In short: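 Flip-in HEK293 cells loaded with Fluo-4 AM were added to plates holding compound plus 50 μM pregnenolone sulfate in Ca2+-containing Krebs buffer. Fluorescence (ex 485/em 535 nm) read directly after cell addition; % inhibition relative to PS-stimulated vehicle and positive-control inhibitor.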

mouse TRPM3α2 (mTRPM3) ion channel, sequence (J9SQF3 other isoform, or with tags, fused parts or gaps): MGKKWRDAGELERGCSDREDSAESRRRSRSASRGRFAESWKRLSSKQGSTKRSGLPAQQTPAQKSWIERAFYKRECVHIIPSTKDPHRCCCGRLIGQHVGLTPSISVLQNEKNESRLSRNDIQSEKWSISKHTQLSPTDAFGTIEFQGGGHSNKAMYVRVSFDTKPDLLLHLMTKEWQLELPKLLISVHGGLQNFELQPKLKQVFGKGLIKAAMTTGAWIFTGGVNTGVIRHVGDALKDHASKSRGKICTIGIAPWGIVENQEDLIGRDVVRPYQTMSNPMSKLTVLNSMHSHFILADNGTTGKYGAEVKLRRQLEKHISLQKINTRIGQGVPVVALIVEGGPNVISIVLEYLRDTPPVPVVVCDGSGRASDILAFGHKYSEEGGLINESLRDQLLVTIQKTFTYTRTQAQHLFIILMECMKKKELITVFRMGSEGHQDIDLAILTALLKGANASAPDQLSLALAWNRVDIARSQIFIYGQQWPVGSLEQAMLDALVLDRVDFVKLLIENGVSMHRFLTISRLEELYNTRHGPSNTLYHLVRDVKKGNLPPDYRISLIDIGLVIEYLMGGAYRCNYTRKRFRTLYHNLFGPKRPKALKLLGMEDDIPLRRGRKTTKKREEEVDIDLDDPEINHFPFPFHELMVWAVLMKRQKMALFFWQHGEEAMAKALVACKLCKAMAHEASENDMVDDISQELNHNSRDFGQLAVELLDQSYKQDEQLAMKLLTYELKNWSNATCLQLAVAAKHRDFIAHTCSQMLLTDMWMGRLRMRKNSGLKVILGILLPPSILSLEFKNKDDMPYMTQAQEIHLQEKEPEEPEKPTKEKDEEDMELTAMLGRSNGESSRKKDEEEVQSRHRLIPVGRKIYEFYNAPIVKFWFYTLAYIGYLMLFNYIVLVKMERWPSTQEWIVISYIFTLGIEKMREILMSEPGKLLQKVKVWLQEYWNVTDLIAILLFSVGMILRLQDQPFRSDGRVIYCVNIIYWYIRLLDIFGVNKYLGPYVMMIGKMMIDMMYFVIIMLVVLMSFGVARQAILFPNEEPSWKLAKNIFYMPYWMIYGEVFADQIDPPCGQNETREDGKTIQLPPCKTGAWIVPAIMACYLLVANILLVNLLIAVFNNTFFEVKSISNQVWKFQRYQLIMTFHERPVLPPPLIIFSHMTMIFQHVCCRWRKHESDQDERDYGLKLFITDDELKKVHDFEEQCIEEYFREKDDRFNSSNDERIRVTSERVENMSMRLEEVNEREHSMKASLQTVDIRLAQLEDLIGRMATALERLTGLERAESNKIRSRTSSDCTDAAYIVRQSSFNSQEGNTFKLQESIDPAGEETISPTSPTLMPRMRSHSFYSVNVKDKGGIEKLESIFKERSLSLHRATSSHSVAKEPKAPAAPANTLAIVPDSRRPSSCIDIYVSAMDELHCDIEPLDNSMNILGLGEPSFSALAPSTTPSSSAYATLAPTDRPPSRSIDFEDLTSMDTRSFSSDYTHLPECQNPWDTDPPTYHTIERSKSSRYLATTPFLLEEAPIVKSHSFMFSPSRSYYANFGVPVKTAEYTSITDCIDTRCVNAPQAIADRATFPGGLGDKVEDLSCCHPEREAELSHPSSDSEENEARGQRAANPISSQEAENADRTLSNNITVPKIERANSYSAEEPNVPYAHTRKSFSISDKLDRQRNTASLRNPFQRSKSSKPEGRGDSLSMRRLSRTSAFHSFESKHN

Compound	IC50
Cc1ccc(COc2ccc3oc(C)c(C(=O)NC4(CO)CCOCC4)c3c2)nn1 [compound 621, N-(4-(hydroxymethyl)tetrahydro-2H-pyran-4-yl)-2-methyl-5-((6-methylpyridazin-3-yl)methoxy)benzofuran-3-carboxamide]	> 20000 nM
Cc1oc2ccc(OCc3cccnn3)cc2c1C(=O)NC1(CO)CCOCC1 [compound 624, N-(4-(hydroxymethyl)tetrahydro-2H-pyran-4-yl)-2-methyl-5-(pyridazin-3-ylmethoxy)benzofuran-3-carboxamide]	< 1000 nM
Cc1oc2ccc(OCc3cccnc3)cc2c1C(=O)NC1(CO)CCOCC1 [compound 625, N-(4-(hydroxymethyl)tetrahydro-2H-pyran-4-yl)-2-methyl-5-(pyridin-3-ylmethoxy)benzofuran-3-carboxamide]	< 1000 nM
Cc1oc2ccc(OCc3cncs3)cc2c1C(=O)NC1(CO)CCOCC1 [compound 627, N-(4-(hydroxymethyl)tetrahydro-2H-pyran-4-yl)-2-methyl-5-(thiazol-5-ylmethoxy)benzofuran-3-carboxamide]	< 1000 nM
COc1cc(COc2ccc3oc(C)c(C(=O)NC4(CO)CCOCC4)c3c2)ccn1 [compound 629, N-(4-(hydroxymethyl)tetrahydro-2H-pyran-4-yl)-5-((2-methoxypyridin-4-yl)methoxy)-2-methylbenzofuran-3-carboxamide]	< 1000 nM
Cc1oc2ccc(OCc3cccc(O)n3)cc2c1C(=O)NC1(CO)CCOCC1 [compound 630, N-(4-(hydroxymethyl)tetrahydro-2H-pyran-4-yl)-5-((6-hydroxypyridin-2-yl)methoxy)-2-methylbenzofuran-3-carboxamide]	> 20000 nM
Cc1oc2ccc(OCc3ccc(O)nc3)cc2c1C(=O)NC1(CO)CCOCC1 [compound 631, N-(4-(hydroxymethyl)tetrahydro-2H-pyran-4-yl)-5-((6-hydroxypyridin-3-yl)methoxy)-2-methylbenzofuran-3-carboxamide]	> 20000 nM
Cc1ncsc1COc1ccc2oc(C)c(C(=O)N(C)C3(CO)CCOCC3)c2c1 [compound 634, N-(4-(hydroxymethyl)tetrahydro-2H-pyran-4-yl)-N.2-dimethyl-5-((4-methylthiazol-5-yl)methoxy)benzofuran-3-carboxamide]	< 1000 nM
Cc1ncsc1COc1ccc2oc(C)c(C(=O)NC(C)(C)CC(N)=O)c2c1 [compound 649, N-(4-amino-2-methyl-4-oxobutan-2-yl)-2-methyl-5-((4-methylthiazol-5-yl)methoxy)benzofuran-3-carboxamide]	< 1000 nM
Cc1ncsc1COc1ccc2oc(C)c(C(=O)NC3(C(N)=O)CCOCC3)c2c1 [compound 650, N-(4-carbamoyltetrahydro-2H-pyran-4-yl)-2-methyl-5-((4-methylthiazol-5-yl)methoxy)benzofuran-3-carboxamide]	< 1000 nM
Cc1oc2ccc(OCc3cccnc3C(F)(F)F)cc2c1C(=O)NC(C)(C)CCO [compound 651, N-(4-hydroxy-2-methylbutan-2-yl)-2-methyl-5-((2-(trifluoromethyl)pyridin-3-yl)methoxy)benzofuran-3-carboxamide]	< 1000 nM
Cc1ncsc1COc1ccc2oc(C)c(C(=O)NC(C)(C)CCO)c2c1 [compound 652, N-(4-hydroxy-2-methylbutan-2-yl)-2-methyl-5-((4-methylthiazol-5-yl)methoxy)benzofuran-3-carboxamide]	< 1000 nM
Cc1ncsc1COc1ccc2oc(C(N)=O)c(C(=O)NC3(CO)CCOCC3)c2c1 [compound 658, N3-(4-(hydroxymethyl)tetrahydro-2H-pyran-4-yl)-5-((4-methylthiazol-5-yl)methoxy)benzofuran-2,3-dicarboxamide]	> 20000 nM
Cc1ncsc1COc1ccc2oc(C)c(C(=O)N(CCO)C3CCC3)c2c1 [compound 660, N-cyclobutyl-N-(2-hydroxyethyl)-2-methyl-5-((4-methylthiazol-5-yl)methoxy)benzofuran-3-carboxamide]	> 20000 nM
Cc1oc2ccc(OCc3cccnc3)cc2c1C(=O)NC(CO)C(N)=O (stereo not shown) [compound 662, N-(1-amino-3-hydroxy-1-oxopropan-2-yl)-2-methyl-5-(pyridin-3-ylmethoxy)benzofuran-3-carboxamide]	< 1000 nM
COc1ncccc1COc1ccc2oc(C)c(C(=O)NC3CNCC3(F)F)c2c1 (stereo not shown) [compound 663, N-(4,4-difluoropyrrolidin-3-yl)-5-((2-methoxypyridin-3-yl)methoxy)-2-methylbenzofuran-3-carboxamide]	< 1000 nM
Cc1oc2ccc(OCc3cccnc3C(F)(F)F)cc2c1C(=O)NC1COCC1(F)F (stereo not shown) [compound 664, N-(4,4-difluorotetrahydrofuran-3-yl)-2-methyl-5-((2-(trifluoromethyl)pyridin-3-yl)methoxy)benzofuran-3-carboxamide]	< 1000 nM
COc1ncccc1COc1ccc2oc(C)c(C(=O)NC3COCC3(F)F)c2c1 (stereo not shown) [compound 665, N-(4,4-difluorotetrahydrofuran-3-yl)-5-((2-methoxypyridin-3-yl)methoxy)-2-methylbenzofuran-3-carboxamide]	< 1000 nM
Cc1ncsc1COc1ccc2oc(C)c(C(=O)NCC(F)(F)F)c2c1 [compound 666, 2-methyl-5-((4-methylthiazol-5-yl)methoxy)-N-(2,2,2-trifluoroethyl)benzofuran-3-carboxamide]	< 1000 nM

Same assay, conditions: PS (50 μM) stimulated, cpds. 667-751

Compound	IC50
Cc1cnn(C)c1COc1ccc2oc(C)c(C(=O)N[C@@H](CO)C(N)=O)c2c1 [compound 668, (S)-N-(1-Amino-3-hydroxy-1-oxopropan-2-yl)-5-((1,4-dimethyl-1H-pyrazol-5-yl)methoxy)-2-methylbenzofuran-3-carboxamide]	< 1000 nM
Cc1oc2ccc(OCc3c(Cl)cnn3C)cc2c1C(=O)N[C@@H](CO)C(N)=O [compound 670, (S)-N-(1-Amino-3-hydroxy-1-oxopropan-2-yl)-5-((4-chloro-1-methyl-1H-pyrazol-5-yl)methoxy) -2-methylbenzofuran-3-carboxamide]	< 1000 nM
Cc1oc2ccc(OCc3c(Cl)cnn3C(C)C)cc2c1C(=O)N[C@@H](CO)C(N)=O [compound 672, (S)-N-(1-amino-3-hydroxy-1-oxopropan-2-yl)-5-((4-chloro-1-isopropyl-1H-pyrazol-5-yl)methoxy)-2-methylbenzofuran-3-carboxamide]	< 1000 nM
Cc1oc2ccc(OCc3ccnn3C(C)C)cc2c1C(=O)N[C@@H](CO)C(N)=O [compound 676, (S)-N-(1-amino-3-hydroxy-1-oxopropan-2-yl)-5-((1-isopropyl-1H-pyrazol-5-yl)methoxy)-2-methylbenzofuran-3-carboxamide]	< 1000 nM
Cc1nc(C)c(COc2ccc3oc(C)c(C(=O)N[C@@H](CO)C(N)=O)c3c2)o1 [compound 678, (S)-N-(1-Amino-3-hydroxy-1-oxopropan-2-yl)-5-((2. 4-dimethyloxazol-5-yl)methoxy)-2-methylbenzofuran-3-carboxamide]	< 1000 nM
Cc1ncoc1COc1ccc2oc(C)c(C(=O)N[C@@H](CO)C(N)=O)c2c1 [compound 680, (S)-N-(1-Amino-3-hydroxy-1-oxopropan-2-yl)-2-methyl-5-((4-methyloxazol-5-yl)methoxy)benzofuran-3-carboxamide]	< 1000 nM
Cc1oc2ccc(OCc3cnc(C(C)C)s3)cc2c1C(=O)N[C@@H](CO)C(N)=O [compound 682, (S)-N-(1-Amino-3-hydroxy-1-oxopropan-2-yl)-5-((2-isopropylthiazol-5-yl)methoxy)-2-methylbenzofuran-3-carboxamide]	< 1000 nM
Cc1ncc(COc2ccc3oc(C)c(C(=O)NC4(C(F)F)CCC4)c3c2)s1 [compound 683, N-(1-(Difluoromethyl)cyclobutyl)-2-methyl-5-((2-methylthiazol-5-yl)methoxy)benzofuran-3-carboxamide]	< 1000 nM
Cc1cnc(COc2ccc3oc(C)c(C(=O)N[C@@H](CO)C(N)=O)c3c2)s1 [compound 684, (S)-N-(1-Amino-3-hydroxy-1-oxopropan-2-yl)-2-methyl-5-((5-methylthiazol-2-yl)methoxy)benzofuran-3-carboxamide]	< 1000 nM
Cc1oc2ccc(OCc3ccn(C)n3)cc2c1C(=O)N[C@@H](CO)C(N)=O [compound 686, (S)-N-(1-Amino-3-hydroxy-1-oxopropan-2-yl)-2-methyl-5-((1-methyl-1H-pyrazol-3-yl)methoxy)benzofuran-3-carboxamide]	< 1000 nM
Cc1oc2ccc(OCc3ccnn3CC(F)(F)F)cc2c1C(=O)N[C@@H](CO)C(N)=O [compound 688, (S)-N-(1-Amino-3-hydroxy-1-oxopropan-2-yl)-2-methyl-5-((1-(2,2,2-trifluoroethyl)-1H-pyrazol-5-yl)methoxy)benzofuran-3-carboxamide]	< 1000 nM
Cc1oc2ccc(OCc3ccnn3CC3CC3)cc2c1C(=O)N[C@@H](CO)C(N)=O [compound 690, (S)-N-(1-amino-3-hydroxy-1-oxopropan-2-yl)-5-((1-(cyclopropylmethyl)-1H-pyrazol-5-yl)methoxy)-2-methylbenzofuran-3-carboxamide]	< 1000 nM
Cc1oc2ccc(OCc3cn(C)nc3C(F)(F)F)cc2c1C(=O)N[C@@H](CO)C(N)=O [compound 692, (S)-N-(1-Amino-3-hydroxy-1-oxopropan-2-yl)-2-methyl-5-((1-methyl-3-(trifluoromethyl)-1H -pyrazol-4-yl)methoxy)benzofuran-3-carboxamide]	< 1000 nM
Cc1oc2ccc(OCc3scnc3C(F)(F)F)cc2c1C(=O)N[C@@H](CO)C(N)=O [compound 694, (S)-N-(1-Amino-3-hydroxy-1-oxopropan-2-yl)-2-methyl-5-((4-(trifluoromethyl)thiazol-5-yl)methoxy)benzofuran-3-carboxamide]	< 1000 nM
Cc1oc2ccc(OCc3nccs3)cc2c1C(=O)N[C@@H](CO)C(N)=O [compound 695, (S)-N-(1-Amino-3-hydroxy-1-oxopropan-2-yl)-2-methyl-5-(thiazol-2-ylmethoxy)benzofuran-3-carboxamide]	< 1000 nM
